Test results published in patent US9938272B2, “Hydrazine compound as blood coagulation factor Xa inhibitor” (NORTH CHINA PHARMACEUTICAL COMPANY., LTD., priority 2014, dated 2018).
pKi: −log10 of the molar value.

Columns and labels:
Type in all cases: biochemical
human Factor Xa = human Factor Xa (Homo sapiens (Human), UniProt P00742); assay: Human factor Xa chromogenic assay; settings: substrate S-2222, read-out: hfXa Ki
human trypsin = human trypsin (Homo sapiens, UniProt P07477); assay: Human trypsin assay; settings: substrate S-2222
prothrombinase = prothrombinase (Homo sapiens (Human), UniProt P00742); assay: Prothrombinase assay (thrombin generation); settings: human factor Xa with human platelets, prothrombin, substrate S-2238
Chain of prothrombinase (P00742 235-488): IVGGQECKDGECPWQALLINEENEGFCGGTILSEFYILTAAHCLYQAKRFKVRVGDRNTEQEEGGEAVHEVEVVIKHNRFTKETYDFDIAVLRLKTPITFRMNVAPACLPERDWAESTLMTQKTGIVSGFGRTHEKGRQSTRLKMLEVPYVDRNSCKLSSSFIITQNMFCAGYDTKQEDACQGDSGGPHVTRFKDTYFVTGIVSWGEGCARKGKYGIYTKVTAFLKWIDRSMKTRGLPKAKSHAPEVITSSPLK
Chain of prothrombinase (P00742 41-179): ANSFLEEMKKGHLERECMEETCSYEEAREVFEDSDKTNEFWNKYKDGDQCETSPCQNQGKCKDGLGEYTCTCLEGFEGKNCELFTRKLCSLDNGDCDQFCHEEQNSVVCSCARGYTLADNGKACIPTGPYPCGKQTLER
Chain of prothrombinase (P12259 29-737 partner): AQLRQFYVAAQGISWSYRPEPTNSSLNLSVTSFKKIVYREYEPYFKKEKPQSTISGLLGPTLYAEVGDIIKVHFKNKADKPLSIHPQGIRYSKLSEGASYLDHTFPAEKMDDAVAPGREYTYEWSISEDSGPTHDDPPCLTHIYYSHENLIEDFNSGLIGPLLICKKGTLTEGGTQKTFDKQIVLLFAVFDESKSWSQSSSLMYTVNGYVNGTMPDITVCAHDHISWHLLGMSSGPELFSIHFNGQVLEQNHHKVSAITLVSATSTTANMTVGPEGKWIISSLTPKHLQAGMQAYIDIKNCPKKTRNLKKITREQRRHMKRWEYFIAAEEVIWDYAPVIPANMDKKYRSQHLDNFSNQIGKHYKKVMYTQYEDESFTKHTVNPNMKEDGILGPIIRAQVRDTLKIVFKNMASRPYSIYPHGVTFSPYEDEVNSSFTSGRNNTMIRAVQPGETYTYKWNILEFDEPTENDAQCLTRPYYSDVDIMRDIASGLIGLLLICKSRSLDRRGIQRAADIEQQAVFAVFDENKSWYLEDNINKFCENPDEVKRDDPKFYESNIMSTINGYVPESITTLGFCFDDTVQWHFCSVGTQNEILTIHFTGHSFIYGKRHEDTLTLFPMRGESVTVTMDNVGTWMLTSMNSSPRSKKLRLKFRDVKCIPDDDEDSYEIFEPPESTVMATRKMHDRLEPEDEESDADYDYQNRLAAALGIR
Chain of prothrombinase (P12259 1574-2224 partner): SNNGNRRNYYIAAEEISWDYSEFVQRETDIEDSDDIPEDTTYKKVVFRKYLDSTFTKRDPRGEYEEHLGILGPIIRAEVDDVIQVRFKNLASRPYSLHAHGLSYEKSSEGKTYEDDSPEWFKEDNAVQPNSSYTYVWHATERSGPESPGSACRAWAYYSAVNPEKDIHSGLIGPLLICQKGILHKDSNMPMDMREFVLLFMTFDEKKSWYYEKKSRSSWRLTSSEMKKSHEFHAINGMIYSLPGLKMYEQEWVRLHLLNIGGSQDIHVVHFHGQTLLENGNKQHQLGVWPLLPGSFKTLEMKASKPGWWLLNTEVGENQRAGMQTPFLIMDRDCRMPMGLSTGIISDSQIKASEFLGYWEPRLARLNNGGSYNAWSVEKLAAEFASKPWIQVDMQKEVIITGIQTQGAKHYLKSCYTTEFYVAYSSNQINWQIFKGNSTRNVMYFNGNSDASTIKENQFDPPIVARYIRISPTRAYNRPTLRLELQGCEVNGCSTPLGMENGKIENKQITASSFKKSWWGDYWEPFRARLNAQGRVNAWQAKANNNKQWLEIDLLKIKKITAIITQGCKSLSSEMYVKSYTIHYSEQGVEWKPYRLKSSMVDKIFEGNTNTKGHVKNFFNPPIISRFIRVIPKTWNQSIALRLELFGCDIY

rat Factor Xa = rat Factor Xa (Rattus norvegicus (Rat), UniProt Q63207); assay: Rat factor Xa chromogenic assay; settings: substrate S-2222, read-out: rfXa Ki
Chain of rat Factor Xa (Q63207 232-482): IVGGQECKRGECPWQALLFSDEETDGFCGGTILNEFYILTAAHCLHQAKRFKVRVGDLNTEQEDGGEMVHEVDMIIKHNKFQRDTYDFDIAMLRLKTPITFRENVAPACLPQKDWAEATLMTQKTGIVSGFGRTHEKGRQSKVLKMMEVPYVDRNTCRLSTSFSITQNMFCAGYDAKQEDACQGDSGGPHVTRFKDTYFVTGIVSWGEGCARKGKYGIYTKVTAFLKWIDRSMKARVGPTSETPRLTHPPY
Chain of rat Factor Xa (Q63207 41-180): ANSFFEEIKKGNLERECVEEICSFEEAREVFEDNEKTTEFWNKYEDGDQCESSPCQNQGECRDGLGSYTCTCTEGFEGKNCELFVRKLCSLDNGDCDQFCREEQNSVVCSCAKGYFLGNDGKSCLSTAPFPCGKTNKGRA

human thrombin = human thrombin (Homo sapiens (Human), UniProt P00734); assay: Human thrombin assay; settings: substrate S-2238

Chain of human Factor Xa (P00742 235-488): as the sequence (P00742 235-488) above
Chain of human Factor Xa (P00742 41-179): as the sequence (P00742 41-179) above

pKi (human Factor Xa)	pKi (human trypsin)	pKi (prothrombinase)	pKi (rat Factor Xa)	pKi (human thrombin)	SMILES
7.30 to 8.00	–	–	–	–	NC(=O)c1nn(-c2ccc(Cl)cc2)c2c1CCN(C1CCN(N3CCOCC3=O)CC1)C2=O [Example 9, 1-(4-Chlorophenyl)-7-oxo-6-(1-(3-oxomorpholino)piperidin-4-yl)-4,5,6,7-tetrahydro-1H-pyrazolo[3,4-c]pyridine-3-carboxamide]
≥ 8.00	≤ 6.00	≥ 8.00	7.30 to 8.00	≤ 6.00	COc1ccc(-n2nc(C(N)=O)c3c2C(=O)N(C2CCN(N4CCCCC4=O)CC2)CC3)cc1 [Example 4, 1-(4-Methoxyphenyl)-7-oxo-6-(2′-oxo-[1,1′-bipiperidin]-4-yl)-4,5,6,7-tetrahydro-1H-pyrazolo[3,4-c]pyridine-3-carboxamide]
6.00 to 7.30	–	–	–	–	NC(=O)c1cc(-n2nc(C(F)(F)F)c3c2C(=O)N(C2CCN(N4CCOCC4=O)CC2)CC3)ccc1OC(F)F [Example 33, 2-(Difluoromethoxy)-5-(7-oxo-6-(1-(3-oxomorpholino)piperidin-4-yl)-3-(trifluoromethyl)-4,5,6,7-tetrahydro-1H-pyrazolo[3,4-c]pyridin-1-yl)benzamide]
≥ 8.00	≤ 6.00	≥ 8.00	≥ 8.00	≤ 6.00	COc1ccc(-n2nc(C(F)(F)F)c3c2C(=O)N(C2CCN(N4CCCC4=O)CC2)CC3)cc1 [Example 3, 1-(4-Methoxyphenyl)-6-(1-(2-oxopyrrolidin-1-yl)piperidin-4-yl)-3-(trifluoromethyl)-5,6-dihydro-1H-pyrazolo[3,4-c]pyridin-7(4H)-one]
6.00 to 7.30	–	–	–	–	CCN(C(=O)c1cc(C(N)=O)nn1-c1ccc(OC)cc1)C1CCN(N2CCOCC2=O)CC1 [Example 17, N^5-Ethyl-1-(4-methoxyphenyl)-N^5-(1-(3-oxomorpholino)piperidin-4-yl)-1H-pyrazole-3,5-dicarboxamide]
≥ 8.00	≤ 6.00	≥ 8.00	≥ 8.00	≤ 6.00	O=C1c2c(c(C(F)(F)F)nn2-c2cc3ccccc3cc2F)CCN1C1CCN(N2CCOCC2=O)CC1 [Example 29, 4-(4-(1-(3-Fluoronaphthalen-2-yl)-7-oxo-3-(trifluoromethyl)-4,5-dihydro-1H-pyrazolo[3,4-c]pyridin-6(7H)-yl)piperidin-1-yl)morpholin-3-one]
≥ 8.00	≤ 6.00	7.30 to 8.00	7.30 to 8.00	≤ 6.00	NC(=O)c1cccc(-n2nc(C(F)(F)F)c3c2C(=O)N(C2CCN(N4CCOCC4=O)CC2)CC3)c1 [Example 31, 3-(7-Oxo-6-(1-(3-oxomorpholino)piperidin-4-yl)-3-(trifluoromethyl)-4,5,6,7-tetrahydro-1H-pyrazolo[3,4-c]pyridin-1-yl)benzamide]
6.00 to 7.30	–	–	–	–	COc1ccc(-n2nc(C(N)=O)cc2C(=O)N(C)C2CCN(N3CCOCC3=O)CC2)cc1 [Example 16, 1-(4-Methoxyphenyl)-N^5-methyl-N^5-(1-(3-oxomorpholino)piperidin-4-yl)-1H-pyrazole-3,5-dicarboxamide]
7.30 to 8.00	–	–	–	–	COc1ccc(-n2nc(C(N)=O)c3c2C(=O)N(C2C4CN(N5CCOCC5=O)CC42)CC3)cc1 (stereo not drawn) [Example 13, 1-(4-Methoxyphenyl)-7-oxo-6-(3-(3-oxomorpholino)-3-azabicyclo[3.1.0]hexan-6-yl)-4,5,6,7-tetrahydro-1H-pyrazolo[3,4-c]pyridine-3-carboxamide]
7.30 to 8.00	–	–	–	–	N#Cc1cccc(-n2nc(C(F)(F)F)c3c2C(=O)N(C2CCN(N4CCOCC4=O)CC2)CC3)c1 [Example 27, 3-(7-Oxo-6-(1-(3-oxomorpholino)piperidin-4-yl)-3-(trifluoromethyl)-4,5,6,7-tetrahydro-1H-pyrazolo[3,4-c]pyridin-1-yl)benzonitrile]
6.00 to 7.30	–	–	–	–	N#Cc1cc(-n2nc(C(F)(F)F)c3c2C(=O)N(C2CCN(N4CCOCC4=O)CC2)CC3)ccc1F [Example 25, 2-Fluoro-5-(7-oxo-6-(1-(3-oxomorpholino)piperidin-4-yl)-3-(trifluoromethyl)-4,5,6,7-tetra hydro-1H-pyrazolo[3,4-c]pyridin-1-yl)benzonitrile]
6.00 to 7.30	–	–	–	–	COc1ccc(-n2nc(C(N)=O)cc2C(=O)NC2CCN(N3CCOCC3=O)C2)cc1 (stereo not drawn) [Example 19, 1-(4-Methoxyphenyl)-N^5-(1-(3-oxomorpholino)pyrrolidin-3-yl)-1H-pyrazole-3,5-dicarboxamide]
6.00 to 7.30	–	–	–	–	NC(=O)c1cc(-n2nc(C(F)(F)F)c3c2C(=O)N(C2CCN(N4CCOCC4=O)CC2)CC3)ccc1F [Example 32, 2-Fluoro-5-(7-oxo-6-(1-(3-oxomorpholino)piperidin-4-yl)-3-(trifluoromethyl)-4,5,6,7-tetra hydro-1H-pyrazolo[3,4-c]pyridin-1-yl)benzamide]
7.30 to 8.00	–	7.30 to 8.00	–	–	COc1ccc(-n2nc(C(N)=O)cc2C(=O)NC2CCN(N3CCOCC3=O)CC2)cc1 [Example 15, 1-(4-Methoxyphenyl)-N^5-(1-(3-oxomorpholino)piperidin-4-yl)-1H-pyrazole-3,5-dicarboxamide]
7.30 to 8.00	–	–	–	–	NC(=O)c1cc(C(=O)NC2CCN(N3CCOCC3=O)CC2)n(C2CCOCC2)n1 [Example 20, N^5-(1-(3-Oxomorpholino)piperidin-4-yl)-1-(tetrahydro-2H-pyran-4-yl)-1H-pyrazole-3,5-dicarboxamide]
6.00 to 7.30	–	–	–	–	N#Cc1cc(-n2nc(C(F)(F)F)c3c2C(=O)N(C2CCN(N4CCOCC4=O)CC2)CC3)ccc1OC(F)F [Example 30, 2-(Difluoromethoxy)-5-(7-oxo-6-(1-(3-oxomorpholino)piperidin-4-yl)-3-(trifluoromethyl)-4,5,6,7-tetrahydro-1H-pyrazolo[3,4-c]pyridin-1-yl)benzonitrile]
6.00 to 7.30	–	–	–	–	COC1CCC(n2nc(C(N)=O)cc2C(=O)NC2CCN(N3CCOCC3=O)CC2)CC1 (stereo not drawn) [Example 22, 1-(4-Methoxycyclohexyl)-N^5-(1-(3-oxomorpholino)piperidin-4-yl)-1H-pyrazole-3,5-dicarboxamide]
7.30 to 8.00	–	–	–	–	COc1ccc(-n2nc(C(N)=O)c3c2C(=O)N(C2C4CN(N5CCCCC5=O)CC42)CC3)cc1 (stereo not drawn) [Example 12, 1-(4-Methoxyphenyl)-7-oxo-6-(3-(2-oxopiperidin-1-yl)-3-azabicyclo[3.1.0]hexan-6-yl)-4,5,6,7-tetrahydro-1H-pyrazolo[3,4-c]pyridine-3-carboxamide]
6.00 to 7.30	–	–	–	–	COc1ccc(-n2nc(C(N)=O)cc2C(=O)N(C2CC2)C2CCN(N3CCOCC3=O)CC2)cc1 [Example 18, N^5-Cyclopropyl-1-(4-methoxyphenyl)-N^5-(1-(3-oxomorpholino)piperidin-4-yl)-1H-pyrazole-3,5-dicarboxamide]
6.00 to 7.30	–	–	7.30 to 8.00	–	COc1ccc(-n2nc(C(N)=O)c3c2C(=O)N(C2CCN(C4CCNC4=O)CC2)CC3)cc1 (single isomer, unassigned) [Example 8a, 1-(4-Methoxyphenyl)-7-oxo-6-(1-(2-oxopyrrolidin-3-yl)piperidin-4-yl)-4,5,6,7-tetrahydro-1H-pyrazolo[3,4-c]pyridine-3-carboxamide]
6.00 to 7.30	–	–	–	–	CS(=O)(=O)N1CCC(n2nc(C(N)=O)cc2C(=O)NC2CCN(N3CCOCC3=O)CC2)CC1 [Example 21, 1-(1-(Methylsulfonyl)piperidin-4-yl)-N^5-(1-(3-oxomorpholino)piperidin-4-yl)-1H-pyrazole-3,5-dicarboxamide]
